Experimental data taken from patent publication US20110082087A1, “COMPOUNDS FOR TREATING PAIN” (Edificio ICAT, priority 2008, published 2011).

How the values were obtained:
[1] = Plasma serum stability of analogues; assay type: in vitro ADME; settings: Human Serum, 1-hour incubation, read-out: Mean Parent Remaining (%); for remaining at 1 h, 400 uM: test concentration 400 uM; for remaining at 1 h, 800 uM: test concentration 800 uM
Protocol: These analogues were tested for plasma serum stability, in comparison with KTP-NH2.

rats (Wister, male) [2] = assay: Tail Flick test; assay type: in vivo, rat; settings: i.p.; rat
Protocol: (§1) In vivo behavioural anti-nociception tests were carried out in rats (Wister, male). Unless otherwise stated, compounds were administered by intra-peritoneal (i.p.) injection. For most assays, the Tail Flick and the Hot Plate tests were used.
The tail-flick test (D'Amour F. E., Smith D. L. 1941. A method for determining the loss of pain sensation. J Pharmacol Exp Ther 1941; 72:74-79) is a standard investigative tool for pain and analgesia assessment in rodents. It is based on a spinal reflex response of the tail to radiant heat. Pain sensitivity in rats was measured as they responded to the application of radiant heat to a small area of their tails. The rat's tail was placed over a window located on a platform and subjected to irradiation by an intense light beam (10 W). When the rat feels discomfort, it flicks its tail which automatically stops the timer. The reaction time from activation of the light beam to the tail flick is automatically presented on a digital display. A cut-off time of 24 s was applied. Animal reaction time is a measurement of animal resistance to pain and is used to measure efficacy of analgesics.

rats (Wister, male) [3] = assay: Increasing-temperature Hot Plate test; assay type: in vivo, rat; settings: i.p.; rat
Protocol: as §1
The hot-plate test (Eddy N. B and Leimbach D. 1953. Synthetic analgesics II. Dithienylbutenyl and dithienylbutylamines J. Pharmacol. Exp. Ther. 45: 339) evaluates a supraspinally integrated response in the form of thermal pain reflexes due to footpad contact with a heated surface. During the experiments, the animal is confined in a removable clear acrylic compartment where the latency time to the first hind paw or/and jumping responses are measured. […] The response is the licking of the hindpaw, and the corresponding plate temperature represents the recorded nociceptive end-point. The advantage of Increasing-Temperature Hot-Plate test over the standard constant-temperature hot-plate test is the higher sensitivity and the lack of influences of pre-exposure to the hot-plate before testing. Animal reaction temperature is a measurement of animal resistance to pain and is used to measure efficacy of analgesics.

rats = assay: Comparison with morphine, behavioural nociception tests and behaviour observation; assay type: in vivo, rat; settings: rats; i.p.
Protocol: as §1
The analgesic potential of KTP-NH2 was also verified by comparison with well-known, widely-used analgesic molecules: ibuprofen and morphine.
From FIG. 12 it is possible to observe that the efficacy of 3 mg/100 g of KTP-NH2 is similar to that observed with 0.5 mg/100 g dose of morphine.

[4] = Partition into lipid bilayer vesicles (fluorescence titration); assay type: physicochemical; settings: mammal-mimetic lipid bilayer vesicle; numerical treatment of fluorescence titration
Description: We performed biophysical studies using fluorescent methodologies in order to characterize the interaction of KTP-NH2 with liposomes representing human cell membranes (Santos N. C., Prieto M. and Castanho M. A. 2003. Quantifying molecular partition into model systems of biomembranes: an emphasis on optical spectroscopic methods. Biochim Biophys Acta 1612: 123-135.). A clear interaction of KTP-NH2 with the lipid bilayers was observed. […] When titrated with a mammal-mimetic lipid bilayer vesicle (circles), the fluorescence intensity of the phenolic moiety increases due to insertion in the apolar environment created by the lipids. The POPC system mimetizes the external layer of human cell membranes, whereas POPG lipidic mixture mimetizes the internal layer of human cell membranes.
In order to confirm that these plasma-stable KTP-NH2 derivatives maintained their lipophilicity, their potential interaction with human cell membranes was assessed. Again, we performed biophysical studies using fluorescent methodologies (Santos N. C., Prieto M. and Castanho M. A. 2003. Quantifying molecular partition into model systems of biomembranes: an emphasis on optical spectroscopic methods. Biochim Biophys Acta 1612: 123-135.).

N=C(N)NCCC[C@@H](NC(=O)[C@H](N)Cc1ccc(O)cc1)C(N)=O [D-Tyr-D-Arg-NH2, D-Tyrosyl-D-Arginine-NH2]
remaining at 1 h, 400 uM [1]: 98.4%

N=C(N)NCCC[C@H](NC(=O)[C@H](N)Cc1ccc(O)cc1)C(N)=O [D-Tyr-L-Arg-NH2, D-Tyrosyl-L-Arginine-NH2]
remaining at 1 h, 400 uM [1]: 98%

CC(C)Cc1ccc(C(C)C(=O)N[C@H](Cc2ccc(O)cc2)C(=O)N[C@@H](CCCNC(=N)N)C(N)=O)cc1 (stereo partly drawn) [Ibu-D-Tyr-L-Arg-NH2, Ibuprofen-D-Tyrosyl-L-Arginine-NH2]
remaining at 1 h, 800 uM [1]: 94.1%

CC(C)Cc1ccc([C@H](C)C(=O)N[C@@H](Cc2ccc(O)cc2)C(=O)N[C@@H](CCCNC(=N)N)C(N)=O)cc1 [Ibu-KTP-NH2, Ibuprofen-L-Tyrosyl-L-Arginine-NH2]
remaining at 1 h, 800 uM [1]: 51.4%

N=C(N)NCCC[C@H](NC(=O)[C@@H](N)Cc1ccc(O)cc1)C(=O)O [KTP, L-Tyrosyl-L-Arginine, reference compound]
effect on tail flick latency (rats (Wister, male) [2]): very small effect | effect in hot plate test (rats (Wister, male) [3]): very small effect

N=C(N)NCCC[C@@H](NC(=O)[C@@H](N)Cc1ccc(O)cc1)C(N)=O [L-Tyr-D-Arg-NH2, L-Tyrosyl-D-Arginine-NH2]
remaining at 1 h, 400 uM [1]: 78.8%

CN[C@@H](Cc1ccc(O)cc1)C(=O)N[C@H](CCCNC(=N)N)C(N)=O [Me-L-Tyr-D-Arg-NH2, Methyl-L-Tyrosyl-D-Arginine-NH2]
remaining at 1 h, 400 uM [1]: 98.5%

CN[C@@H](Cc1ccc(O)cc1)C(=O)N[C@@H](CCCNC(=N)N)C(N)=O [Me-L-Tyr-L-Arg-NH2, Methyl-L-Tyrosyl-L-Arginine-NH2]
remaining at 1 h, 400 uM [1]: 89%

CN1CC[C@]23c4c5ccc(O)c4O[C@H]2[C@@H](O)C=C[C@H]3[C@H]1C5 [morphine, reference compound]
alterations in behavior (secondary effects) (rats): several alterations in behavior, like scratching

Ibuprofen-L-Tyrosyl-L-Arginine-OH [Ibu-KTP]
local concentration in the model membrane of mammals relative to surrounding bulk aqueous phase [4]: ~333 fold
